system: green peach aphid (Myzus persicae); test: Myzus test; type: in vivo; conditions: broad bean seedlings dipped, concentration of active compound 1000 ppm
Procedure: [table] To produce a suitable preparation of active compound, 1 part by weight of active compound is mixed with the stated amount of solvent and the stated amount of emulsifier, and the concentrate is diluted with emulsifier-containing water to the desired concentrations. Broad bean seedlings (Vicia faba) infested by the green peach aphid (Myzus persicae) are dipped into a preparation of active compound of the desired concentration and placed into a dish made of plastic. After the desired period of time, the kill in % is determined. 100% means that all of the animals have been killed; 0% means that none of the animals have been killed.

| SMILES | kill rate |
| --- | --- |
| CON=C(C1=NOCCO1)c1ccccc1COc1ccn(-c2ccc(Cl)cc2)n1 [Example 1, [2-({[1-(4-chlorophenyl)-1H-pyrazol-3-yl]oxy}methyl)phenyl](5,6-dihydro-1,4,2-dioxazin-3-yl)methanone O-methyl oxime] | 90% |

system: Meloidogyne incognita; test: Meloidogyne test; type: in vivo; conditions: lettuce in sand, concentration of active compound 20 ppm
Procedure: [table] To produce a suitable preparation of active compound, 1 part by weight of active compound is mixed with the stated amounts of solvent and emulsifier, and the concentrate is diluted with water to the desired concentration. Containers are filled with sand, solution of active compound, Meloidogyne incognita egg/larvae suspension and lettuce seeds. The lettuce seeds germinate and the plants develop. On the roots, galls are formed. After the desired period of time, the nematicidal action is determined in % via the formation of galls. 100% means that no galls were found; 0% means that the number of galls on the treated plants corresponds to that on the untreated control.

| SMILES | kill rate (nematicidal action via the formation of galls) |
| --- | --- |
| CON=C(C1=NOCCO1)c1ccccc1COc1ccn(-c2ccc(Cl)cc2)n1 [Example 1, [2-({[1-(4-chlorophenyl)-1H-pyrazol-3-yl]oxy}methyl)phenyl](5,6-dihydro-1,4,2-dioxazin-3-yl)methanone O-methyl oxime] | 100% |
| CON=C(C1=NOCCO1)c1ccccc1COc1ccn(-c2ccc(C#N)cc2)n1 [Example 12] | 100% |

system: not listed separately; test: physchem; conditions: not given

| chromatographic logP | SMILES |
| --- | --- |
| 3.47 | CCc1ccccc1-n1ccc(OCc2ccccc2C(=NOC)C2=NOCCO2)n1 [Example 26] |
| 3.74 | CON=C(C1=NOCCO1)c1ccccc1COc1ccn(-c2cc(Cl)ccc2Cl)n1 [Example 27] |
| 3.68 | CON=C(C1=NOCCO1)c1ccccc1COc1ccn(-c2cccc(C)c2C)n1 [Example 28] |
| 3.68 | CON=C(C1=NOCCO1)c1ccccc1COc1ccn(-c2ccc(C)c(C)c2)n1 [Example 29] |
| 3.79 | CON=C(C1=NOCCO1)c1ccccc1COc1ccn(-c2cc(C)cc(C)c2)n1 [Example 30] |
| 3.51 | CON=C(C1=NOCCO1)c1ccccc1COc1ccn(-c2cccc3ccccc23)n1 [Example 31] |
| 3.11 | CON=C(C1=NOCCO1)c1ccccc1COc1ccn(Cc2cccc(C)c2)n1 [Example 32] |
| 3.97 | CON=C(C1=NOCCO1)c1ccccc1COc1ccn(Cc2ccc(C(C)(C)C)cc2)n1 [Example 33] |
| 2.79 | CON=C(C1=NOCCO1)c1ccccc1COc1ccn(Cc2ccccc2)n1 [Example 35] |
| 3.19 | CON=C(C1=NOCCO1)c1ccccc1COc1ccn(Cc2ccc(Cl)cc2)n1 [Example 36] |
| 3 | CON=C(C1=NOCCO1)c1ccccc1COc1ccn(-c2ccc(OC)cc2)n1 [Example 39] |
| 3.76 | CCc1ccc(-n2ccc(OCc3ccccc3C(=NOC)C3=NOCCO3)n2)cc1 [Example 42] |
| 3.43 | CCOc1ccccc1-n1ccc(OCc2ccccc2C(=NOC)C2=NOCCO2)n1 [Example 43] |
| 2.61 | C=CCn1ccc(OCc2ccccc2C(=NOC)C2=NOCCO2)n1 [Example 44] |
| 3.84 | CON=C(C1=NOCCO1)c1ccccc1COc1ccn(-c2ccc(I)cc2)n1 [Example 46] |
| 2.87 | CON=C(C1=NOCCO1)c1ccccc1COc1ccn(-c2ccccc2OC)n1 [Example 48] |
| 3.52 | CON=C(C1=NOCCO1)c1ccccc1COc1ccn(CC2CCCCC2)n1 [Example 334] |

Further lines, the compound ahead of its results:

| SMILES | chromatographic logP |
| --- | --- |
| CON=C(C1=NOCCO1)c1ccccc1COc1ccn(-c2ccccc2Br)n1 [Example 2] | 3.21 |
| CON=C(C1=NOCCO1)c1ccccc1COc1ccn(-c2ccc(Br)cc2)n1 [Example 3] | 3.67 |
| CON=C(C1=NOCCO1)c1ccccc1COc1ccn(-c2ccc(F)cc2)n1 [Example 4] | 3.15 |
| CON=C(C1=NOCCO1)c1ccccc1COc1ccn(-c2ccc(C)cc2)n1 [Example 5] | 3.4 |
| CON=C(C1=NOCCO1)c1ccccc1COc1ccn(-c2ccc(Cl)c(Cl)c2)n1 [Example 6] | 4.02 |
| CON=C(C1=NOCCO1)c1ccccc1COc1ccn(-c2cc(Cl)cc(Cl)c2)n1 [Example 7] | 4.24 |
| CON=C(C1=NOCCO1)c1ccccc1COc1ccn(-c2cccc(Cl)c2)n1 [Example 8] | 3.59 |
| CON=C(C1=NOCCO1)c1ccccc1COc1ccn(-c2ccccc2Cl)n1 [Example 9] | 3.2 |
| CON=C(C1=NOCCO1)c1ccccc1COc1ccn(-c2cccc(Br)c2)n1 [Example 10] | 3.68 |
| CON=C(C1=NOCCO1)c1ccccc1COc1ccn(-c2ccccc2C)n1 [Example 11] | 3.15 |
| CON=C(C1=NOCCO1)c1ccccc1COc1ccn(-c2ccc(C#N)cc2)n1 [Example 12] | 2.89 |
| CON=C(C1=NOCCO1)c1ccccc1COc1ccn(-c2ccccc2)n1 [Example 13] | 3.06 |
| CON=C(C1=NOCCO1)c1ccccc1COc1ccn(-c2ccc(Cl)cc2Cl)n1 [Example 14] | 3.78 |
| CON=C(C1=NOCCO1)c1ccccc1COc1ccn(-c2ccc(C(C)(C)C)cc2)n1 [Example 15] | 4.33 |
| CON=C(C1=NOCCO1)c1ccccc1COc1ccn(-c2ccc(C(C)C)cc2)n1 [Example 16] | 4.08 |
| CON=C(C1=NOCCO1)c1ccccc1COc1ccn(-c2c(Cl)cccc2Cl)n1 [Example 17] | 4.08 |
| CON=C(C1=NOCCO1)c1ccccc1COc1ccn(-c2cccc(Cl)c2Cl)n1 [Example 18] | 3.59 |
| CON=C(C1=NOCCO1)c1ccccc1COc1ccn(-c2ccc(F)cc2F)n1 [Example 19] | 3.28 |
| CON=C(C1=NOCCO1)c1ccccc1COc1ccn(-c2ccccc2F)n1 [Example 20] | 3.19 |
| CON=C(C1=NOCCO1)c1ccccc1COc1ccn(-c2cccc(F)c2)n1 [Example 21] | 3.24 |
| CON=C(C1=NOCCO1)c1ccccc1COc1ccn(-c2cc(C)ccc2C)n1 [Example 22] | 3.52 |
| CON=C(C1=NOCCO1)c1ccccc1COc1ccn(-c2c(Cl)cc(Cl)cc2Cl)n1 [Example 24] | 3.74 |
| CON=C(C1=NOCCO1)c1ccccc1COc1ccn(-c2ccc(C)cc2C)n1 [Example 25] | 3.5 |

Source: US20030109702A1, “Pyrazolyl benzyl ethers” (priority 1999, published 2003)
